This is an account of results in patent US20090062273A1, “3-H-pyrazolopyridines and salts thereof, pharmaceutical compositions comprising same, methods of preparing same and uses of same” (priority 2006, published 2009).

The target of assay [1] is T1, human insuline receptor (Ins-R) (Homo sapiens, UniProt P06213).
T1 construct: GST-tagged recombinant kinase domain of the human insuline receptor; GST; purchased ProQinase, Freiburg, Germany; host or cells: SF-9 cells
The experiment in a line: InsR HTRF assay (selectivity vs. Tie2 assay 2). It is filed as biochemical. Particulars: IC50 assay 4/IC50 assay 2. As for the experimental part: Inhibitory activity of compounds against the kinase activity of the insulin receptor was quantified employing the Ins-R HTRF assay as described in the following paragraphs.
GST-tagged recombinant kinase domain of the human insuline receptor (Ins-R, purchase from ProQinase, Freiburg, Germany) expressed in SF-9 cells was used as kinase. As substrate for the kinase reaction biotinylated poly-(Glu,Tyr) (Cis biointernational, France) was used.
Ins-R was incubated for 20 min at 22° C. in the presence of different concentrations of test compounds in 5 μl assay buffer [50 mM Hepes/NaOH pH 7, 15 mM MnCl2, 1 mM dithiothreitol, 0.1 μM sodium ortho-vanadate, 0.015% (v/v) PEG20000, 10 μM adenosine-tri-phosphate (ATP), 0.3 μg/ml substrate, 1% (v/v) dimethylsulfoxide]. The concentration of Ins-R was adjusted depending of the activity of the enzyme lot and was chosen appropriate to have the assay in the linear range, typical concentrations were in the range of 10 pg/μL. The reaction was stopped by the addition of 5 μl of a solution of HTRF detection reagents (0.1 μM streptavidine-XLent and 1 nM PT66-Eu-Chelate, an europium-chelate labelled anti-phospho-tyrosine antibody from Perkin Elmer) in an aqueous EDTA-solution (80 mM EDTA, 0.2% (w/v) bovine serum albumin in 50 mM HEPES/NaOH pH 7.0).
The resulting mixture was incubated 1 h at 22° C. to allow the binding of the biotinylated phosphorylated peptide to the streptavidine-XLent and the PT66-Eu-Chelate. Subsequently the amount of phosphorylated substrate was evaluated by measurement of the resonance energy transfer from the PT66-Eu-Chelate to the streptavidine-XLent. Therefore, the fluorescence emissions at 620 nm and 665 nm after excitation at 350 nm was measured in a HTRF reader, e.g. a Rubystar (BMG Labtechnologies, Offenburg, Germany) or a ViewLux (Perkin-Elmer). The ratio of the emissions at 665 nm and at […] was taken as the measure for the amount of phosphorylated substrate. The data were normalised (enzyme reaction without inhibitor=0% inhibition, all other assay components but no enzyme=100% inhibition) and IC50 values were calculated by a 4 parameter fit using an inhouse software.
In general terms: Time-resolved FRET reads energy transfer from a long-lived donor to a nearby acceptor.

In assay [2] the target is Tie2 (Homo sapiens, UniProt Q02763). Briefly: Tie2 ELISA assay (cellular Tie2 autophosphorylation). Format: cell-based. To be noted: CHO cells stably transfected with Tie2, stimulated by angiopoietin-2; Tie2 autophosphorylation by sandwich-ELISA; read-out: Tie 2 activity (assay 1). On the set-up: expressed in transfected cells; host or cells: CHO (CHO Tie2/DHFR). As for the experimental part:
Cellular activity of compounds of the present invention as inhibitors of Tie2 kinase activity was measured employing a Tie2 ELISA assay as described in the following paragraphs. Herein CHO cell-cultures, which are stably transfected by known techniques with Tie2 using DHFR deficiency as selection marker, are stimulated by angiopoietin-2. The specific autophosphorylation of Tie2 receptors is quantified with a sandwich-ELISA using anti-Tie2 antibodies for catch and anti-phosphotyrosine antibodies coupled to HRP for detection.
• 96 well tissue culture plate, sterile, Greiner • 96 well FluoroNunc plate MaxiSorp Surface C, Nunc • 96 well plate polypropylene for compound dilution in DMSO • CHO Tie2/DHFR (transfected cells) • PBS−; PBS++, DMSO • MEM alpha Medium with Glutamax-I without Ribonucleosides and Deoxyribonucleosides (Gibco #32561-029) • with 10% FCS after dialysis! and 1% PenStrep • Lysis buffer: 1 Tablet “Complete” protease inhibitor • 1 cap Vanadate (1 mL>40 mg/mL; working solution 2 mM) • ad 50 mL with Duschl-Puffer • pH 7.6 • Anti-Tie2-antibody 1:425 in Coating Buffer pH 9.6 • Stock solution: 1.275 mg/mL>working.: 3 μg/mL • PBST: 2 bottles PBS (10×)+10 ml Tween, fill up with VE-water • RotiBlock 1:10 in VE-water • Anti-Phosphotyrosine HRP-Conjugated 1:10000 in 3% TopBlock • 3% TopBlock in PBST • BM Chemiluminescence ELISA Substrate (POD) • solution B 1:100 solution A • SF9 cell culture medium • Ang2-Fc in SF9 cell culture medium
• Dispense 5×10^4 cells/well/98 μL in 96 well tissue culture plate • Incubate at 37° C./5% CO2 • After 24 h add compounds according to desired concentrations • Add also to control and stimulated values without compounds 2 μL DMSO • And mix for a few min at room temperature • Add 100 μL Ang2-Fc to all wells except control, which receives insect medium • Incubate 20 min at 37° C. • Wash 3× with PBS++ • Add 100 μl Lysis buffer/well and shake a couple of min at room temperature • Store lysates at […] before utilizing for the ELISA
• Coat 96 well FluoroNunc Plate MaxiSorp Surface C with anti-Tie2 mAb 1:425 in Coating buffer pH 9.6; 100 μL/well overnight at 4° C. • Wash 2× with PBST • Block plates with 250 μL/well RotiBlock 1:10 in VE-water • Incubate for 2 h at room temperature or overnight at 4° C. shaking • Wash 2× in PBST • Add thawed lysates to wells and incubate overnight shaking at 4° C. • Wash 2× with PBST • Add 100 μL/well anti-Phosphotyrosine HRP-Conjugated 1:10000 in 3% TopBlock (3% TopBlock in PBST) and incubate overnight under shaking • Wash 6× with PBST • Add 100 μL/well BM Chemiluminescence ELISA Substrate (POD) solutions 1 und 2 (1:100) • Determine luminescence with the LumiCount. Assay 2: Tie-2-Kinase HTRF-Assay without Kinase Preactivation
Background: ELISA stands for enzyme-linked immunosorbent assay.

T1 sequence (P06213 1023-1298 limits assumed): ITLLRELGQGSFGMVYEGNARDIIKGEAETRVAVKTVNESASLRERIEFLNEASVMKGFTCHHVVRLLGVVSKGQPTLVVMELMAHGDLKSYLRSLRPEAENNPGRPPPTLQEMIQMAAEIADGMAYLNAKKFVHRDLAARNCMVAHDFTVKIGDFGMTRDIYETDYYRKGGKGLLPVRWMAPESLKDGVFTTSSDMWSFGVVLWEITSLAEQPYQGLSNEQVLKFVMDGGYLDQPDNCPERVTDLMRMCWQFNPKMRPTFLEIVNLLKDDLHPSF
Chain of Tie2 (Q02763 23-1124, species assumed): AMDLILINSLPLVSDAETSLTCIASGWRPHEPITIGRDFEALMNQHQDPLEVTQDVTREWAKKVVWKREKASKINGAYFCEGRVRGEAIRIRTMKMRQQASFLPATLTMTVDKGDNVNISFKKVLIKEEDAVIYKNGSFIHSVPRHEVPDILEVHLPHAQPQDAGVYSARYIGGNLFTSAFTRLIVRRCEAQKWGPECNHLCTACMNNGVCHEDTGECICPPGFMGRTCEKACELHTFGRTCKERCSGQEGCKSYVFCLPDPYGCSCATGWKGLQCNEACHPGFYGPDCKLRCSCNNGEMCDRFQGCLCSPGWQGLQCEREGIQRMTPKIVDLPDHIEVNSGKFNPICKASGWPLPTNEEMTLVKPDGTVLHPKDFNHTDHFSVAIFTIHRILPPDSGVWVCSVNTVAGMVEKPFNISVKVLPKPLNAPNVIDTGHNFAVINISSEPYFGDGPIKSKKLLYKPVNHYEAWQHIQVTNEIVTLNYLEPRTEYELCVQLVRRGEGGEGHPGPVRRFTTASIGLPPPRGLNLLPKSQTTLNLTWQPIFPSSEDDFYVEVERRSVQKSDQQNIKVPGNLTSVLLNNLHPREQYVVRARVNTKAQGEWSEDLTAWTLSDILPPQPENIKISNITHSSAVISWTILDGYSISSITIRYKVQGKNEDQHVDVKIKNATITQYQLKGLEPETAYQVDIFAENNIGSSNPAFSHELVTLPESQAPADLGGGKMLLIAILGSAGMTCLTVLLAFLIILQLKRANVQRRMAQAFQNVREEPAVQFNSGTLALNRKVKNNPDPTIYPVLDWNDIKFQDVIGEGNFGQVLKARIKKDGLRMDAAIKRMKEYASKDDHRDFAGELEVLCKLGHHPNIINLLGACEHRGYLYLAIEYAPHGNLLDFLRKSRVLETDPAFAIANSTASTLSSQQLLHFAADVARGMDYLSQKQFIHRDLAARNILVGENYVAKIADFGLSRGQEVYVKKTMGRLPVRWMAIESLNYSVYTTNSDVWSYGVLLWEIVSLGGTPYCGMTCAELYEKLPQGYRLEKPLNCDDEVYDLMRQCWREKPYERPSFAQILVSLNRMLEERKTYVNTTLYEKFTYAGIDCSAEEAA

On to `CCn1ncc2c(-c3ccc(NC(=O)Nc4cc(C)ccc4F)c(F)c3)cncc21` [Example 11.3, 1-[4-(1-Ethyl-1H-pyrazolo[3,4-c]pyridin-4-yl)-2-fluoro-phenyl]-3-(2-fluoro-5-methyl-phenyl)-urea], for which, in assay [1], the “Selectivity vs. InsR” value is >50fold. Besides, the IC50 in assay [2] is < 501 nM.

`COCCn1ncc2c(-c3ccc(NC(=O)Nc4cccc(C(F)(F)F)c4)cc3)cncc21` [Example 12.1, 1-{4-[1-(2-Methoxy-ethyl)-1H-pyrazolo[3,4-c]pyridin-4-yl]-phenyl}-3-(3-trifluoromethyl-phenyl)-urea]: in assay [1], the “Selectivity vs. InsR” value is given as >50fold. In addition, in assay [2], the IC50 is < 501 nM.

Turning to `COCCn1ncc2c(-c3ccc(NC(=O)Nc4cc(C)ccc4F)cc3)cncc21` [Example 12.3, 1-(2-Fluoro-5-methyl-phenyl)-3-{4-[1-(2-methoxy-ethyl)-1H-pyrazolo[3,4-c]pyridin-4-yl]-phenyl}-urea], the “Selectivity vs. InsR” value in assay [1] is >50fold. Also, the IC50 in assay [2] is < 501 nM.

Regarding `COCCn1ncc2c(-c3ccc(NC(=O)Nc4cccc(C(F)(F)F)c4)c(F)c3)cncc21` [Example 12.4, 1-{2-Fluoro-4-[1-(2-methoxy-ethyl)-1H-pyrazolo[3,4-c]pyridin-4-yl]-phenyl}-3-(3-trifluoromethyl-phenyl)-urea], the “Selectivity vs. InsR” value in assay [1] was >50fold. Besides, the IC50 in assay [2] is < 501 nM.

On to `COCCn1ncc2c(-c3ccc(NC(=O)Nc4cc(C(F)(F)F)ccc4F)c(F)c3)cncc21` [Example 12.5, 1-{2-Fluoro-4-[1-(2-methoxy-ethyl)-1H-pyrazolo[3,4-c]pyridin-4-yl]-phenyl}-3-(2-fluoro-5-trifluoromethyl-phenyl)-urea], for which the “Selectivity vs. InsR” value in assay [1] was >50fold. Moreover, the IC50 in assay [2] was < 501 nM.

Consider `Cn1ncc2c(-c3ccc(NC(=O)Nc4cc(C(C)(C)C)on4)cc3)cncc21` [Example 13.2, 1-(5-tert-Butyl-isoxazol-3-yl)-3-[4-(1-methyl-1H-pyrazolo[3,4-c]pyridin-4-yl)-phenyl]-urea], for which, in assay [1], the “Selectivity vs. InsR” value is given as >50fold. In addition, the IC50 in assay [2] is < 501 nM.

Take `Cn1ncc2c(-c3ccc(NC(=O)Nc4cc(C(C)(C)C)nn4-c4ccccc4)cc3)cncc21` [Example 13.4, 1-(5-tert-Butyl-2-phenyl-2H-pyrazol-3-yl)-13-[4-(1-methyl-1H-pyrazolo[3,4-c]pyridin-4-yl)-phenyl]-urea]: in assay [1], the “Selectivity vs. InsR” value is recorded as >50fold. For the same compound, the IC50 in assay [2] was < 501 nM.

For the compound `CN1CCN(Cc2ccc(NC(=O)Nc3ccc(-c4cncc5c4cnn5C)cc3F)cc2C(F)(F)F)CC1` [Example 13.6, 1-[2-Fluoro-4-(1-methyl-1H-pyrazolo[3,4-c]pyridin-4-yl)-phenyl]-3-[4-(4-methyl-piperazin-1-ylmethyl)-3-trifluoromethyl-phenyl]-urea], in assay [1], the “Selectivity vs. InsR” value was >50fold. In addition, the IC50 in assay [2] is < 501 nM.

As for `CN(C)c1ccc(C(F)(F)F)cc1NC(=O)Nc1ccc(-c2cncc3c2cnn3C)cc1` [Example 13.11, 1-(2-Dimethylamino-5-trifluoromethyl-phenyl)-3-[4-(1-methyl-1H-pyrazolo[3,4-c]pyridin-4-yl)-phenyl]-urea], the “Selectivity vs. InsR” value in assay [1] is recorded as >50fold. The IC50 in assay [2] was < 501 nM.

Regarding `CN(C)C1CCN(c2ccc(C(F)(F)F)cc2NC(=O)Nc2ccc(-c3cncc4c3cnn4C)cc2)C1` (stereo not shown) [Example 13.12, 1-[2-(3-Dimethylamino-pyrrolidin-1-yl)-5-trifluoromethyl-phenyl]-3-[4-(1-methyl-1H-pyrazolo[3,4-c]pyridin-4-yl)-phenyl]-urea], in assay [1], the “Selectivity vs. InsR” value was >50fold. For the same compound, the IC50 in assay [2] is < 501 nM.

For `CN(C)CCN(C)c1ccc(C(F)(F)F)cc1NC(=O)Nc1ccc(-c2cncc3c2cnn3C)cc1` [Example 13.13, 1-{2-[(2-Dimethylamino-ethyl)-methyl-amino]-5-trifluoromethyl-phenyl}-3-[4-(1-methyl-1H-pyrazolo[3,4-c]pyridin-4-yl)-phenyl]-urea], in assay [1], the “Selectivity vs. InsR” value is reported as >50fold. Further, the IC50 in assay [2] is < 501 nM.

On to `Cn1nc(C(C)(C)C)cc1NC(=O)Nc1ccc(-c2cncc3c2cnn3C)cc1` [Example 14.3, 1-(5-tert-Butyl-2-methyl-2H-pyrazol-3-yl)-3-[4-(1-methyl-1H-pyrazolo[3,4-c]pyridin-4-yl)-phenyl]-urea], for which, in assay [1], the “Selectivity vs. InsR” value is on record as >50fold. The IC50 in assay [2] was < 501 nM.

Turning to `Cn1ncc2c(-c3ccc(NC(=O)Nc4cc(C(F)(F)F)ccn4)c(F)c3)cncc21` [Example 14.5, 1-[2-Fluoro-4-(1-methyl-1H-pyrazolo[3,4-c]pyridin-4-yl)-phenyl]-3-(4-trifluoromethyl-pyridin-2-yl)-urea], the “Selectivity vs. InsR” value in assay [1] is on record as >50fold. In addition, the IC50 in assay [2] was < 501 nM.

On to `CC(C)c1cc(NC(=O)Nc2ccc(-c3cncc4c3cnn4C)cc2)n(-c2cccc(F)c2)n1` [Example 15.1, 1-[2-(3-Fluoro-phenyl)-5-isopropyl-2H-pyrazol-3-yl]-3-[4-(1-methyl-1H-pyrazolo[3,4-c]pyridin-4-yl)-phenyl]-urea], for which the “Selectivity vs. InsR” value in assay [1] is given as >50fold. Moreover, the IC50 in assay [2] is < 501 nM.

For `CC(C)c1cc(NC(=O)Nc2ccc(-c3cncc4c3cnn4C)cc2F)n(-c2cccc(F)c2)n1` [Example 15.2, 1-[2-Fluoro-4-(1-methyl-1H-pyrazolo[3,4-c]pyridin-4-yl)-phenyl]-3-[2-(3-fluoro-phenyl)-5-isopropyl-2H-pyrazol-3-yl]-urea], in assay [1], the “Selectivity vs. InsR” value is >50fold. For the same compound, in assay [2], the IC50 is < 501 nM.

Regarding `COc1cccc(-n2nc(C(C)(C)C)cc2NC(=O)Nc2ccc(-c3cncc4c3cnn4C)cc2)c1` [Example 15.5, 1-[5-tert-Butyl-2-(3-methoxy-phenyl)-2H-pyrazol-3-yl]-3-[4-(1-methyl-1H-pyrazolo[3,4-c]pyridin-4-yl)-phenyl]-urea], the “Selectivity vs. InsR” value in assay [1] is on record as >50fold. For the same compound, the IC50 in assay [2] was < 501 nM.

In the case of `Cn1ncc2c(-c3ccc(NC(=O)Nc4cc(C(C)(C)C)nn4-c4ccc(F)cc4)cc3)cncc21` [Example 15.7, 1-[5-tert-Butyl-2-(4-fluoro-phenyl)-2H-pyrazol-3-yl]-3-[4-(1-methyl-1H-pyrazolo[3,4-c]pyridin-4-yl)-phenyl]-urea], in assay [1], the “Selectivity vs. InsR” value was >50fold. Besides, the IC50 in assay [2] was < 501 nM.
